Source: patent publication US10308650B2, “Pesticidally active tetracyclic derivatives with sulfur containing substituents” (Syngenta Participations AG, priority 2014, dated 2019)

How the values were obtained:
Assay type in all cases: in vivo
[1] = tested on: Myzus persicae (Green Peach Aphid); assay: Activity against Myzus persicae: feeding/contact activity; conditions: foliar, 144 h, application rate of 200 ppm, sunflower leaf discs, aphid population of mixed ages, 6 days after infestation, read-out: mortality
Protocol: Example B5: Activity Against Myzus persicae (Green Peach Aphid): Feeding/Contact Activity
Sunflower leaf discs were placed onto agar in a 24-well microtiter plate and sprayed with aqueous test solutions prepared from 10,000 ppm DMSO stock solutions. After drying, the leaf discs were infested with an aphid population of mixed ages. The samples were assessed for mortality 6 days after infestation.

[2] = tested on: Diabrotica balteata (Corn Root Worm); assay: Activity against Diabrotica balteata; conditions: 96 h, application rate of 200 ppm, maize sprouts, L2 larvae, 4 days after infestation, read-out: effect in at least one of the two categories (mortality or growth inhibition)
Protocol: Example B2: Activity Against Diabrotica balteata (Corn Root Worm)
Maize sprouts placed onto an agar layer in 24-well microtiter plates were treated with aqueous test solutions prepared from 10,000 ppm DMSO stock solutions by spraying. After drying, the plates were infested with L2 larvae (6 to 10 per well). The samples were assessed for mortality and growth inhibition in comparison to untreated samples 4 days after infestation.

[3] = tested on: Euschistus heros (Neotropical Brown Stink Bug); assay: Activity against Euschistus heros; conditions: 120 h, application rate of 200 ppm, soybean leaves, N2 nymphs, 5 days after infestation, read-out: effect in at least one of the two categories (mortality or growth inhibition)
Protocol: Example B3: Activity Against Euschistus heros (Neotropical Brown Stink Bug)
Soybean leaves on agar in 24-well microtiter plates were sprayed with aqueous test solutions prepared from 10,000 ppm DMSO stock solutions. After drying the leaves were infested with N2 nymphs. The samples were assessed for mortality and growth inhibition in comparison to untreated samples 5 days after infestation.

[4] = tested on: Myzus persicae (Green Peach Aphid); assay: Activity against Myzus persicae: systemic activity; conditions: 144 h, test rate of 24 ppm, roots of infested pea seedlings in test solution, 6 days, read-out: mortality
Protocol: Example B6: Activity Against Myzus persicae (Green Peach Aphid). Systemic Activity
Roots of pea seedlings infested with an aphid population of mixed ages were placed directly into aqueous test solutions prepared from 10,000 DMSO stock solutions. The samples were assessed for mortality 6 days after placing seedlings into test solutions.

[5] = tested on: Plutella xylostella (Diamond Back Moth); assay: Activity against Plutella xylostella; conditions: 120 h, application rate of 200 ppm, artificial diet, L2 larvae, 5 days after infestation, read-out: effect in at least one of the two categories (mortality or growth inhibition)
Protocol: Example B8: Activity Against Plutella xylostella (Diamond Back Moth)
24-well microtiter plates with artificial diet were treated with aqueous test solutions prepared from 10,000 ppm DMSO stock solutions by pipetting. After drying, the plates were infested with L2 larvae (10 to 15 per well). The samples were assessed for mortality and growth inhibition in comparison to untreated samples 5 days after infestation.

[6] = tested on: Bemisia tabaci (Cotton White Fly); assay: Activity against Bemisia tabaci: feeding/contact activity; conditions: foliar, 144 h, application rate of 200 ppm, cotton leaf discs, adult white flies, 6 days after incubation
Protocol: Example B1: Activity Against Bemisia tabaci (Cotton White Fly): Feeding/Contact Activity
Cotton leaf discs were placed on agar in 24-well microtiter plates and sprayed with aqueous test solutions prepared from 10,000 ppm DMSO stock solutions. After drying the leaf discs were infested with adult white flies. The samples were checked for mortality 6 days after incubation.

Row | SMILES | mortality at 200 ppm [1] | percent effect (mortality or growth inhibition) at 200 ppm [2] | percent effect (mortality or growth inhibition) at 200 ppm [3] | mortality at 24 ppm [4] | percent effect (mortality or growth inhibition) at 200 ppm [5] | mortality at 200 ppm [6]
1 | CCS(=O)(=O)c1cc2c(cc1-c1nc3cc(C(F)(F)F)ncc3n1C)nnn2C [Compound A36, 6-ethylsulfonyl-1-methyl-5-[3-methyl-6-(trifluoromethyl)imidazo[4,5-c]pyridin-2-yl]benzotriazole] | ≥ 80% | ≥ 80% | ≥ 80% | ≥ 80% | ≥ 80% | –
2 | CCS(=O)(=O)c1cc2[nH]c(C(F)(F)F)nc2nc1-c1nc2cc(C(F)(F)F)ncc2n1C [Compound A34, 6-ethylsulfonyl-5-[3-methyl-6-(trifluoromethyl)imidazo[4,5-c]pyridin-2-yl]-2-(trifluoromethyl)-1H-imidazo[4,5-b]pyridine] | – | ≥ 80% | ≥ 80% | ≥ 80% | – | –
3 | CCS(=O)(=O)c1cc2c[n+]([O-])ccc2cc1-c1nc2cc(C(F)(F)F)ncc2n1C [Compound A27, 7-ethylsulfonyl-6-[3-methyl-6-(trifluoromethyl)imidazo[4,5-c]pyridin-2-yl]-2-oxido-isoquinolin-2-ium] | ≥ 80% | – | ≥ 80% | ≥ 80% | – | ≥ 80%
4 | CCS(=O)(=O)c1cc2cnccc2cc1-c1nc2cc(C(F)(F)F)ncc2n1C [Compound A26, 7-ethylsulfonyl-6-[3-methyl-6-(trifluoromethyl)imidazo[4,5-c]pyridin-2-yl]isoquinoline] | – | – | ≥ 80% | – | – | –
5 | CCS(=O)(=O)c1cc2nc(C)n(C)c2cc1-c1nc2cc(C(F)(F)F)ncc2n1C (single isomer, unassigned) [Compound A14, 2-(6-ethylsulfonyl-2,3-dimethyl-benzimidazol-5-yl)-3-methyl-6-(trifluoromethyl)imidazo[4,5-c]pyridine] | ≥ 80% | – | ≥ 80% | – | – | –
6 | CC[S+]([O-])c1cc2ccccc2cc1-c1nc2cc(C(F)(F)F)cnc2n1C (stereo not shown) [Compound A2, 2-(3-ethylsulfinyl-2-naphthyl)-3-methyl-6-(trifluoromethyl)imidazo[4,5-b]pyridine] | – | ≥ 80% | ≥ 80% | – | – | –
7 | CCS(=O)(=O)c1cc2nccnc2cc1-c1nc2cc(C(F)(F)F)ncc2n1C [Compound A20, 6-ethylsulfonyl-7-[3-methyl-6-(trifluoromethyl)imidazo[4,5-c]pyridin-2-yl]quinoxaline] | – | ≥ 80% | – | ≥ 80% | – | –
8 | CCS(=O)(=O)c1cc2ncn(C)c2cc1-c1nc2cc(C(F)(F)F)ncc2n1C (single isomer, unassigned) [Compound A11, 2-(6-ethylsulfonyl-3-methyl-benzimidazol-5-yl)-3-methyl-6-(trifluoromethyl)imidazo[4,5-c]pyridine] | ≥ 80% | ≥ 80% | ≥ 80% | ≥ 80% | – | –
9 | CCSc1cc2ccccc2cc1-c1nc2cc(C(F)(F)F)cnc2n1C [Compound A1, 2-(3-ethylsulfanyl-2-naphthyl)-3-methyl-6-(trifluoromethyl)imidazo[4,5-b]pyridine] | – | ≥ 80% | ≥ 80% | – | – | –
10 | CCS(=O)(=O)c1cc2ncsc2cc1-c1nc2cc(C(F)(F)F)ncc2n1C [Compound A30, 5-ethylsulfonyl-6-[3-methyl-6-(trifluoromethyl)imidazo[4,5-c]pyridin-2-yl]-1,3-benzothiazole] | – | ≥ 80% | ≥ 80% | – | ≥ 80% | –
11 | CCSc1cc2cnccc2cc1-c1nc2cc(C(F)(F)F)ncc2n1C [Compound A25, 7-ethylsulfanyl-6-[3-methyl-6-(trifluoromethyl)imidazo[4,5-c]pyridin-2-yl]isoquinoline] | – | ≥ 80% | ≥ 80% | – | – | –
12 | CCS(=O)(=O)c1cc2nnn(C)c2cc1-c1nc2cc(C(F)(F)F)ncc2n1C [Compound A35, 5-ethylsulfonyl-1-methyl-6-[3-methyl-6-(trifluoromethyl)imidazo[4,5-c]pyridin-2-yl]benzotriazole] | ≥ 80% | ≥ 80% | – | ≥ 80% | – | –
13 | CCS(=O)(=O)c1cc2c(cc1-c1nc3cc(C(F)(F)F)ncc3n1C)ncn2C (single isomer, unassigned) [Compound A12, 2-(6-ethylsulfonyl-1-methyl-benzimidazol-5-yl)-3-methyl-6-(trifluoromethyl)imidazo[4,5-c]pyridine] | ≥ 80% | – | ≥ 80% | ≥ 80% | ≥ 80% | –
14 | CCS(=O)(=O)c1cc2nc(-c3ccccc3)[nH]c2cc1-c1nc2cc(C(F)(F)F)ncc2n1C [Compound A16, 2-(6-ethylsulfonyl-2-phenyl-3H-benzimidazol-5-yl)-3-methyl-6-(trifluoromethyl)imidazo[4,5-c]pyridine] | – | – | – | – | ≥ 80% | –
15 | CCS(=O)(=O)c1cc2nn[nH]c2cc1-c1nc2cc(C(F)(F)F)ncc2n1C [Compound A17, 2-(6-ethylsulfonyl-3H-benzotriazol-5-yl)-3-methyl-6-(trifluoromethyl)imidazo[4,5-c]pyridine] | – | – | ≥ 80% | – | – | –
16 | CCS(=O)(=O)c1cc2c(cc1-c1nc3cc(C(F)(F)F)ncc3n1C)nc(C)n2C (single isomer, unassigned) [Compound A15, 2-(6-ethylsulfonyl-1,2-dimethyl-benzimidazol-5-yl)-3-methyl-6-(trifluoromethyl)imidazo[4,5-c]pyridine] | ≥ 80% | – | ≥ 80% | ≥ 80% | ≥ 80% | –
